This note sets out measurements from ChEMBL document CHEMBL1770085, “Homodimeric bis-quaternary heterocyclic ammonium salts as potent acetyl- and butyrylcholinesterase inhibitors: a systematic investigation of the influence of linker and cationic heads over affinity and selectivity” (J Med Chem, 2011).

The nature of assay [1]: Selectivity index, ratio of IC50 for equine BChE to IC50 for bovine AChE.
Another assay deals with T1, Acetylcholinesterase (Bos taurus, UniProt P23795).
T1 sequence (P23795 whole entry): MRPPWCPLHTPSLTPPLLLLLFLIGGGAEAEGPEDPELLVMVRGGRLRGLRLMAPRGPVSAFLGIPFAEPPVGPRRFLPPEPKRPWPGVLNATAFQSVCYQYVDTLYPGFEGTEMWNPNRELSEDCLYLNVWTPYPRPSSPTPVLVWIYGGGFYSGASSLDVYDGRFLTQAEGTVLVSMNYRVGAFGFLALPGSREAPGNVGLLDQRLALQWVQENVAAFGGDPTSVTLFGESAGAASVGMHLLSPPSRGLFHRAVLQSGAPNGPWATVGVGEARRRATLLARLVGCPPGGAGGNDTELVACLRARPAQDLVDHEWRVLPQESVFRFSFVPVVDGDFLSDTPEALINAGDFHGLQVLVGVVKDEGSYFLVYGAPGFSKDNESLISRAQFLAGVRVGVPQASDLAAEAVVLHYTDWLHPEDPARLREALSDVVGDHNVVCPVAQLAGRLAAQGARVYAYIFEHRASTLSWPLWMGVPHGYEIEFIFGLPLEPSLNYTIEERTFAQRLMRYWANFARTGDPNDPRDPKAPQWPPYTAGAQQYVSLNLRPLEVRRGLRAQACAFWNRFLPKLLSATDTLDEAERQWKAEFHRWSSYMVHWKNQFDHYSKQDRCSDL

For another assay, the target named is Butyrylcholinesterase (Equus caballus, UniProt Q9N1N9).
Chain of Butyrylcholinesterase (Q9N1N9 whole entry): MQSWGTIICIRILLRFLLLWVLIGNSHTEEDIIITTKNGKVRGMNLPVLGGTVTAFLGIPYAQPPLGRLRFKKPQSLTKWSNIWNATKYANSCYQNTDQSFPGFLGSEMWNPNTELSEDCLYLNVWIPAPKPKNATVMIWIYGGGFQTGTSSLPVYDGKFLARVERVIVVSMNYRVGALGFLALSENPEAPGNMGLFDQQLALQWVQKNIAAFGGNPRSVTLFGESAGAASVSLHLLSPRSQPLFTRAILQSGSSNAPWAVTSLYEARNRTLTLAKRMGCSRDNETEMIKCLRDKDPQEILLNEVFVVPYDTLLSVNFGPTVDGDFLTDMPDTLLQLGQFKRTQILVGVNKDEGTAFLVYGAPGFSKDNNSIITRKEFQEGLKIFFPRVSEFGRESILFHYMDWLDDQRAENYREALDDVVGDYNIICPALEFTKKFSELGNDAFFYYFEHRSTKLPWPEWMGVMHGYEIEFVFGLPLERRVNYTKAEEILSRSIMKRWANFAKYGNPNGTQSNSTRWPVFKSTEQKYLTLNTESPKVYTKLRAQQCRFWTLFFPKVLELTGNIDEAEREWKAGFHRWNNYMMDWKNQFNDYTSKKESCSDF

Description for Acetylcholinesterase: Inhibition of bovine AChE after 20 mins using acetylthiocholine iodide as a substrate by Ellman's assay
Description for Butyrylcholinesterase: Inhibition of equine BChE after 20 mins using butyrylthiocholine iodide as a substrate by Ellman's assay

Regarding `c1cc(C[n+]2ccc(NC3CCCCC3)cc2)ccc1CCCCc1ccc(C[n+]2ccc(NC3CCCCC3)cc2)cc1`, the Ratio IC50 in assay [1] stood at 2.1. Also, the IC50 against Acetylcholinesterase was 100 nM; on Butyrylcholinesterase it was 206 nM.
On the same counts, the results for `C(=C\c1ccc(C[n+]2ccc(N3CCCCC3)cc2)cc1)/c1ccc(C[n+]2ccc(N3CCCCC3)cc2)cc1` are 0.42, 582 nM and 247 nM.
As for `c1cc(C[n+]2ccc(N3CCCC3)cc2)ccc1Cc1ccc(C[n+]2ccc(N3CCCC3)cc2)cc1`, the Ratio IC50 in assay [1] turned out to be 3.1. Besides, the IC50 was 183 nM on Acetylcholinesterase and 576 nM against Butyrylcholinesterase.
As for `CN(C)c1cc[n+](C[C@@H]2C[C@H]2C[n+]2ccc(N(C)C)cc2)cc1` (relative stereo), the IC50 at Acetylcholinesterase amounted to 8780 nM.
`CN(c1ccc(Cl)cc1)c1cc[n+](Cc2cccc(-c3cccc(C[n+]4ccc(N(C)c5ccc(Cl)cc5)cc4)c3)c2)cc1`: the Ratio IC50 in assay [1] came out at 0.28. In addition, the IC50 was 1780 nM against Acetylcholinesterase and 496 nM against Butyrylcholinesterase.
For `COc1cc2c(cc1OC)CN(c1cc[n+](Cc3ccc(C[n+]4ccc(N5CCc6cc(OC)c(OC)cc6C5)cc4)cc3)cc1)CC2` the same measures were 0.7, 1950 nM and 1370 nM.
On the same counts, the results for `CN(c1ccccc1)c1cc[n+](Cc2cccc(C[n+]3ccc(N(C)c4ccccc4)cc3)c2)cc1` are 0.79, 1150 nM and 910 nM.
For `c1cc(C[n+]2ccc(N3CCc4ccccc4C3)cc2)cc(C[n+]2ccc(N3CCc4ccccc4C3)cc2)c1` the same measures were 0.68, 281 nM and 190 nM.
Take `c1ccc2c(c1)CCN(c1cc[n+](Cc3ccc(-c4ccc(C[n+]5ccc(N6CCc7ccccc7C6)cc5)cc4)cc3)cc1)C2`: the Ratio IC50 in assay [1] was found to be 0.92. The IC50 was determined as 346 nM at Acetylcholinesterase and 318 nM on Butyrylcholinesterase.
Regarding `COc1cc2c(cc1OC)CN(c1cc[n+](Cc3cccc(C[n+]4ccc(N5CCc6cc(OC)c(OC)cc6C5)cc4)c3)cc1)CC2`, the Ratio IC50 in assay [1] was 0.42. For the same compound, the IC50 against Acetylcholinesterase stood at 2100 nM; against Butyrylcholinesterase, 890 nM.
On the same counts, the results for `c1cc(C[n+]2ccc(N3CCCC3)cc2)cc(-c2cccc(C[n+]3ccc(N4CCCC4)cc3)c2)c1` are 13, 39 nM and 518 nM.
On the same counts, the results for `c1cc(-c2ccc(C[n+]3ccc(N4CCCC4)cc3)cc2)ccc1C[n+]1ccc(N2CCCC2)cc1` are 14, 90 nM and 1270 nM.
On the same counts, the results for `c1cc(-c2ccc(C[n+]3ccc(N4CCCCC4)cc3)cc2)ccc1C[n+]1ccc(N2CCCCC2)cc1` are 2.7, 160 nM and 430 nM.
Take `c1cc(C[n+]2ccc(N3CCCCC3)cc2)cc(C[n+]2ccc(N3CCCCC3)cc2)c1`: the Ratio IC50 in assay [1] worked out at 2.9. The values for the concentration for half-maximal inhibition (IC50) at Acetylcholinesterase and against Butyrylcholinesterase were 114 nM and 335 nM, respectively.
With `c1cc(C[n+]2ccc(N3CCCCC3)cc2)ccc1CCc1ccc(C[n+]2ccc(N3CCCCC3)cc2)cc1`, the Ratio IC50 in assay [1] turned out to be 1.6. For the same compound, the concentration for half-maximal inhibition (IC50) against Acetylcholinesterase stood at 79 nM; at Butyrylcholinesterase, 130 nM.
On the same counts, the results for `COc1cc2c(cc1OC)CN(c1cc[n+](Cc3ccc(-c4ccc(C[n+]5ccc(N6CCc7cc(OC)c(OC)cc7C6)cc5)cc4)cc3)cc1)CC2` are 16, 94 nM and 1530 nM.
For `c1cc(C[n+]2ccc(N3CCCC3)cc2)ccc1CCCc1ccc(C[n+]2ccc(N3CCCC3)cc2)cc1` the same measures were 3.6, 81 nM and 292 nM.
Take `c1cc(C[n+]2ccc(N3CCCC3)cc2)ccc1CCc1ccc(C[n+]2ccc(N3CCCC3)cc2)cc1`: in assay [1], the Ratio IC50 is 1.9. Besides, the IC50 worked out at 385 nM against Acetylcholinesterase and 735 nM at Butyrylcholinesterase.
On the same counts, the results for `c1ccc2c(c1)CCN(c1cc[n+](Cc3ccc(C[n+]4ccc(N5CCc6ccccc6C5)cc4)cc3)cc1)C2` are 2.6, 126 nM and 327 nM.
On the same counts, the results for `c1cc(C[n+]2ccc(C3CCCCC3)cc2)cc(-c2cccc(C[n+]3ccc(C4CCCCC4)cc3)c2)c1` are 8.2, 134 nM and 1090 nM.
For `c1ccc(-c2cc[n+](Cc3cccc(-c4cccc(C[n+]5ccc(-c6ccccc6)cc5)c4)c3)cc2)cc1` the same measures were 1.4, 553 nM and 797 nM.
As to `CN(c1cc[n+](Cc2ccc(C[n+]3ccc(N(C)c4cc(Cl)cc(Cl)c4)cc3)cc2)cc1)c1cc(Cl)cc(Cl)c1`, the Ratio IC50 in assay [1] worked out at 0.31. Further, the figures for the IC50 at Acetylcholinesterase and against Butyrylcholinesterase were 5200 nM and 1600 nM, respectively.
On the same counts, the results for `c1cc(C[n+]2ccc(N3CCCCCC3)cc2)ccc1CCCc1ccc(C[n+]2ccc(N3CCCCCC3)cc2)cc1` are 0.81, 202 nM and 163 nM.
Consider `OC1C[N+]2(Cc3ccc(CCc4ccc(C[N+]56CCC(CC5)C(O)C6)cc4)cc3)CCC1CC2` (stereo not drawn), for which the Ratio IC50 in assay [1] was 22. For the same compound, the figures for the IC50 on Acetylcholinesterase and against Butyrylcholinesterase were 97 nM and 2090 nM, respectively.
Consider `CN(c1ccc(Cl)cc1)c1cc[n+](Cc2ccc(-c3ccc(C[n+]4ccc(N(C)c5ccc(Cl)cc5)cc4)cc3)cc2)cc1`, for which the Ratio IC50 in assay [1] turned out to be 0.22. In addition, the IC50 at Acetylcholinesterase turned out to be 3070 nM; against Butyrylcholinesterase, 683 nM.
For the compound `c1cc(C[n+]2ccc(N3CCCCC3)cc2)ccc1Cc1ccc(C[n+]2ccc(N3CCCCC3)cc2)cc1`, in assay [1], the Ratio IC50 stood at 0.75. For the same compound, the IC50 against Acetylcholinesterase stood at 83 nM; on Butyrylcholinesterase, 62 nM.
For `CN(c1cc[n+](Cc2ccc(-c3ccc(C[n+]4ccc(N(C)c5cc(Cl)cc(Cl)c5)cc4)cc3)cc2)cc1)c1cc(Cl)cc(Cl)c1` the same measures were 0.19, 2870 nM and 550 nM.
In turn, `c1ccc(C[n+]2ccc(N3CCCC3)cc2)cc1` came in with a 50% inhibitory concentration (IC50) against Acetylcholinesterase of 5530 nM.
Regarding `Cc1c2c(C)c3c(C)c1C[n+]1ccc(cc1)NCc1cc(cc(c1)CNc1cc[n+](cc1)C3)CNc1cc[n+](cc1)C2`, the Ratio IC50 in assay [1] amounted to 0.14. The concentration for half-maximal inhibition (IC50) against Acetylcholinesterase turned out to be 3680 nM; against Butyrylcholinesterase, 516 nM.
On the same counts, the results for `c1cc(C[n+]2ccc(N3CCCC3)cc2)ccc1CCCCc1ccc(C[n+]2ccc(N3CCCC3)cc2)cc1` are 6.5, 104 nM and 671 nM.
With `CN(C)c1cc[n+](Cc2cccc(C[n+]3ccc(N(C)C)cc3)c2)cc1`, in assay [1], the Ratio IC50 was 19. Further, the IC50 came out at 390 nM against Acetylcholinesterase and 7560 nM against Butyrylcholinesterase.
For `c1cc(C[n+]2ccc(N3CCCCC3)cc2)ccc1CCCc1ccc(C[n+]2ccc(N3CCCCC3)cc2)cc1` the same measures were 0.91, 163 nM and 149 nM.
Regarding `OC1C[N+]2(Cc3ccc(/C=C/c4ccc(C[N+]56CCC(CC5)C(O)C6)cc4)cc3)CCC1CC2` (stereo not drawn), in assay [1], the Ratio IC50 came to 38. Further, the IC50 was 141 nM against Acetylcholinesterase and 5340 nM against Butyrylcholinesterase.
On the same counts, the results for `c1cc(C[n+]2ccc(N3CCCCCC3)cc2)ccc1CCc1ccc(C[n+]2ccc(N3CCCCCC3)cc2)cc1` are 3.2, 86 nM and 274 nM.
On the same counts, the results for `CN(c1cc[n+](Cc2cc(C[n+]3ccc(N(C)c4cc(Cl)cc(Cl)c4)cc3)cc(C[n+]3ccc(N(C)c4cc(Cl)cc(Cl)c4)cc3)c2)cc1)c1cc(Cl)cc(Cl)c1` are 0.38, 1770 nM and 679 nM.
As for `CN(C)c1cc[n+](Cc2ccc(C[n+]3ccc(N(C)C)cc3)cc2)cc1`, in assay [1], the Ratio IC50 turned out to be 7.6. On Acetylcholinesterase, this compound showed a concentration for half-maximal inhibition (IC50) of 1310 nM.
Take `Nc1cc[n+](Cc2ccc(CCc3ccc(C[n+]4ccc(N)c5ccccc54)cc3)cc2)c2ccccc12`: the Ratio IC50 in assay [1] worked out at 0.92. Also, the IC50 at Acetylcholinesterase amounted to 672 nM; at Butyrylcholinesterase, 620 nM.
For `COc1cc2c(cc1OC)CN(c1cc[n+](Cc3cccc(-c4cccc(C[n+]5ccc(N6CCc7cc(OC)c(OC)cc7C6)cc5)c4)c3)cc1)CC2` the same measures were 2.3, 519 nM and 1170 nM.
On the same counts, the results for `Cc1c[n+](Cc2cccc(-c3cccc(C[n+]4cc(C)c(N)c5ccccc54)c3)c2)c2ccccc2c1N` are 0.12, 497 nM and 59 nM.
On the same counts, the results for `c1cc2cc(c1)C[n+]1ccc(cc1)NCc1ccc(cc1)CNc1cc[n+](cc1)C2` are 0.22, 3900 nM and 850 nM.
In the case of `CN(C)c1cc[n+](Cc2cc(C[n+]3ccc(N(C)C)cc3)cc(C[n+]3ccc(N(C)C)cc3)c2)cc1`, the Ratio IC50 in assay [1] came to 3.6. At Acetylcholinesterase, this compound showed an IC50 of 2750 nM.
Consider `c1cc(C[n+]2ccc(N3CCCC3)cc2)ccc1C[n+]1ccc(N2CCCC2)cc1`, for which the Ratio IC50 in assay [1] came to 3.9. Besides, the 50% inhibitory concentration (IC50) came out at 336 nM at Acetylcholinesterase and 1300 nM against Butyrylcholinesterase.
For `c1cc(C[n+]2ccc(N3CCOCC3)cc2)ccc1CCc1ccc(C[n+]2ccc(N3CCOCC3)cc2)cc1` the same measures were 1.7, 2670 nM and 4480 nM.
